Activity calls are given as the source filed them. No cut-off for these calls is given here.
Legend:
[1] = system: NCI-H1299; experiment: Viability of H1299 (p53 null) cells at 4 mM by MTT assay; format: functional; settings: Homo sapiens
[2] = system: NCI-H1299; experiment: Viability of H1299 (p53 null) cells in presence of 4 Gy at 4 mM by MTT assay; format: functional; settings: Homo sapiens

Compound	GI50 [1]	GI50 [2]	Activity [1]
O=C1C2CCN(CC2)C12COC(c1ccccc1)OC2 (stereo not drawn)	17.3 µM	4.49 µM	
OCC1(CO)C(O)C2CCN1CC2 (stereo not drawn)			inactive
CC(=O)OCC1(COC(C)=O)C(=O)C2CCN1CC2			Active
O=C1C2CCN(CC2)C1(CO)CO			Active
CC1(C)OCC2(CO1)C(=O)C1CCN2CC1	19.2 µM	4.74 µM	
O=C1CN2CCC1CC2			inactive

From ChEMBL document CHEMBL1138165, “Structure-activity studies of quinuclidinone analogs as anti-proliferative agents in lung cancer cell lines” (2006)
